Consider two compounds from patent publication US12727599B2, “Use of cyclodextrins as agrochemical delivery system” (priority 2018, dated 2026).

The nature of data set [1]: Complexation ability of cyclodextrins with chlorantraniliprole. In kind it is physicochemical.
Data set [2] can be described thus: Phase solubility isotherms of folpet-cyclodextrin complexes. Conditions: with folpet. The data set is classed as physicochemical. As for the experimental part: The weight ratio of folpet to cyclodextrin was approximately 1:2. The content of folpet in the complex was determined by HPLC. Phase solubility isotherms were carried out for the folpet-cyclodextrin complexes.

For `OC[C@H]1O[C@@H]2O[C@H]3[C@H](O)[C@@H](O)[C@@H](O[C@H]4[C@H](O)[C@@H](O)[C@@H](O[C@H]5[C@H](O)[C@@H](O)[C@@H](O[C@H]6[C@H](O)[C@@H](O)[C@@H](O[C@H]7[C@H](O)[C@@H](O)[C@@H](O[C@H]1[C@H](O)[C@H]2O)O[C@@H]7CO)O[C@@H]6CO)O[C@@H]5CO)O[C@@H]4CO)O[C@@H]3CO` [Alpha-cyclodextrin, alpha cyclodextrin], the complexation ability result in data set [1] is “highest complexation ability”.

Consider “methyl-beta-cyclodextrin [RAMEB cyclodextrin]”, for which the complexation ability entry in data set [2] is “highest complexation ability”.
